One test relates to ED-40515(−). The test is described as follows: Effect of CXCR4 antagonist on in vivo growth of ED-40515(−) tumor in NOG mice. The note with it: 7.5×10^7 cells inoculated, KRH-1636 0.14 mg/mouse intraperitoneally every day, 15 days. The method, then: (§1) Using 3 samples of HTLV-1 leukemia derived cell lines [L=Leukemic cell lines: ED-40515(−), MT-1 and TL-Oml], 6 samples of HTLV-1 infected cell lines [IT=infected transformed cell lines: SLB-1, M8116, HUT-102, MT-2, MT-4 and TY9-31MT], 10^7-8 cells/0.5 mL were transplanted to NOG mice and NOD/Shi-scid mice subcutaneously at a left posterior auricle thereof, and to some of them subcutaneously at a gluteal region thereof. Then, the tumor size in the mice, tissue image, and the mice with, and those without, leukemia were chronologically compared for examination, and the relations between these and transcription factors such as NFkB or fluctuation of Tax protein were also analyzed.
(§2) Assuming that effective tumor formation by 10^7 of ED-40515(−) in NOG mice was attributable to active neogenesis of tumoral vessels via CXCR4 of tumor cells, it has been expected that tumor formation would be inhibited as long as there was continuous administration of KRH-1636, a competitive agent of SDF-1 which was a ligand thereof in endothelial cells. However, in the case of ED-40515(−) and SLB-1 (histologically angiotropic) accompanied by bleeding, the mice formed tumors with sizes of 25×18×12 mm and 20×10×18 mm equivalent to those of non-treated group, even though KRH-1636 was intraperitoneally administered every day.

Another test has as its system SLB-1. Put plainly: Effect of CXCR4 antagonist on in vivo growth of SLB-1 tumor in NOG mice. Particulars: 7.5×10^7 cells inoculated, KRH-1636 0.14 mg/mouse intraperitoneally every day, 15 days. The procedure:
as §1, §2

On to `C[C@H](NC(=O)[C@H](CCCN=C(N)N)NC(=O)c1ccc(CNCc2ccccn2)cc1)c1cccc2ccccc12` [KRH-1636], for which the “Remarks (tumor)” value in the test on ED-40515(−) and in the test with SLB-1 was “progressive large tumor” each time.

(Values after patent US8541033B2, “Production of human antibodies using NOD/SCID/γcnull mice” (Central Institute for Experimental Animals, priority 2000, dated 2013).)
